The values below come from US5278045A, “Method and compositions to screen compounds for enhancement of the cholinergic, dopaminergic and serotonergic function” (Du Pont Merck Pharmaceutical Company, priority 1990, dated 1994).

Usually IC50 stands for the concentration that gives 50% inhibition. The low end stands for greater potency, the high end for weaker potency.

For one assay, the system named is ACh release. Description: Neurotransmitter release assay: stimulated ACh release from brain slices. On the set-up: species or system rat. The following applies: concentration to enhance stimulated release of ACh by 100% (2-fold) over control, from dose response curves. How it is done:
Male Wistar rats weighing 175-200 g were euthanatized and the brains were dissected out immediately. Slices (0.3 mm thick) from the parietal cortex were prepared manually by using a recessed Lucite® guide. Slices (1.5 mm thick) from the hippocampus and the caudate nucleus were prepared by using a slotted brain holder. All slices were subsequently cut into 0.25×0.25 mm squares with a McIlwain tissue chopper.
Labeling of transmitter stores in slices was prepared by the following methods. For ACh release, slices (approximately 100 mg wet weight) were incubated in 10 ml Krebs-Ringer (KR) medium containing (mM): NaCl(116), KCl(3), CaCl2 (1.3), MgCl2 (1.2), KH2 PO4 (1.2), Na2 SO4 (1.2), NaHCO3 (25) and glucose(11), to which 10 μCi ^3 H-choline (specific activity approx. 80 Ci/mmol: NEN) and 10 nmol unlabeled choline had been added to give a final concentration of 10^-6 M. Incubation was carried out for 30 min at 37° C. under a steady flow of 95% O2 /5% CO2. Under these conditions, part of the radioactive choline taken up is converted into radioactive ACh by cholinergic nerve endings, stored in synaptic vesicles, and released upon depolarization by high-K^+ -containing medium [Molenaar et al., 1973a]. For dopamine (DA), serotonin (5-HT), and norepinephrine (NE) release, slices (approximately 100 mg wet weight) were incubated in KR medium containing 0.01 mM nialamide at 37° C. under a steady flow of 95% O2 /5% CO2. The MAO-inhibitor nialamide was added to the medium in order to inhibit metabolism to the monoamines. Incubation was for 30 min in 10 ml of KR medium to which 10 μCi ^3 H-dopamine, ^3 H-norepinephrine, or ^3 H-5-hydroxytryptamine (specific activity 30, 45, and 78 Ci/mmol, respectively: all from NEN) had been added.
Separate experiments were performed for the release of each neurotransmitter. After labeling of the transmitter stores, the slices were washed three times with non-radioactive KR medium and transferred to a superfusion apparatus to measure the drug effects on transmitter release [Schoemaker et al., Psychopharmacology 74, 137 (1981)]. The superfusion apparatus consisted of 10 thermo-jacketed glass columns of 5 mm diameter which were provided with GF/F glass fiber filters to support the brain slices (approximately 10 mg tissue/column). Superfusion was carried out with KR medium at a rate of 0.3 ml/min. For ACh release, 10^-5 M hemicholinium-3 was added to the medium to prevent the uptake of choline formed during superfusion from phospholipids and released ACh, so that it could not be subsequently converted into newly synthesized ACh, which would be released in preference to the pre-formed, labeled ACh. The medium was delivered by a 25-channel peristaltic pump (Ismatec; Brinkman) and maintained at 37° C. by a thermostated stainless-steel heating coil before entering the superfusion column. Each column was provided with a four-way slider valve (Beckman Instruments) which allowed rapid change of low-to-high-K^+ -KR-medium and with two 10-channel, 3-way valves which were used to change form drug-free to drug-containing low- and high-K^+ -KR media.
After 15 min washout of non-specifically bound radioactivity during superfusion, the collection of fractions of 4 min (1.2 ml) each was started. After 3×4 min, the KR medium was changed to a KR medium with 25 mM KCl (ACh, 5-HT release) or 12.5 mM KCl (DA release) (high K^+ -KR medium; S1). Depolarization-induced stimulation of release by high-K^+ -KR medium was then substituted by drug- or vehicle-containing low- and high-K^+ -KR medium and superfusion continued for 3×4 min with low-K^+ -KR medium, for 1×4 min with high-K^+ -KR medium (S2), and for 2×4 min with low-K^+ -KR medium.
Compounds were added to the medium by 100-fold dilution of appropriate stock solutions (in 0.9% NaCl/H2 O) with either low- or high-K^+ -KR medium.
All superfusion fractions were collected in liquid scintillation counting vials.

Assay [1] deals with DuP 996 binding protein. Description: Radioreceptor screening assay (displacement of tritiated DuP 996). More on the design: species or system rat. The following applies: inhibition of binding of 10 nM tritiated DuP 996, pH 7.4, 25° C., 60 minutes. How it is done: Male Sprague-Dawley rats (Charles River Breeding Laboratories) at 200-250 g were euthanatized by decapitation. Rat brain regions were dissected according to Heffner et al., Pharmacol. Biochem. Behav., 13, 453 (1980). Brain membranes were prepared by the method of Tam, Proc. Natl. Acad. Sci. USA, 80, 6703 (1983). The brain tissues were homogenized (20 sec) in 10 vol (wt/vol) of ice-cold 0.32M sucrose with a Brinkman Polytron (setting 8). The homogenate was centrifuged at 920×g for 10 min at 4° C. The supernatant was centrifuged at 47,000×g for 20 min. The resulting membrane pellet was resuspended in 10 vol (original wt/vol) of 50 mM Tris-HCl (pH 7.4) and incubated at 37° C. for 30 min to degrade and dissociate bound endogenous ligands. The membranes were then centrifuged at 47,000×g for 20 min and resuspended in 50 mM Tris-HCl.
Compounds to be screened were incubated with brain membranes. (1-2 mg protein) in 50 mM Tris-HCl buffer, pH 7.4, for 10 minutes in 25° C. Then 10 nM tritiated DuP 996 or its active structural analogs were added and incubated at 25° C. for 60 minutes. The samples were filtered on Whatman GF/B glass filters which had been soaked in 0.2% polyethylenimine and washed 3 times each with 5 ml of ice-cold Tris buffer. Nonspecific binding was determined by performing binding in the presence of 10 μM DuP 996. The control represents specific binding in the absence of compounds to be screened. Screened compounds which inhibited the specific binding of tritiated DuP 996 or analogs to its binding protein should be active in binding to the same protein. This is illustrated further in Example 4, Part B.

Another assay concerns Alzheimer's patients. Conditions: clinical trials with cholinesterase inhibitors, literature; cited from earlier work.
For assay [2], the system named is Detergent Solubilized Rat Brain Membrane Proteins. Nature of the assay: Specific [^3 H]DuP 996 binding to detergent solubilized rat brain membrane proteins. The following applies: 10 nM tritiated DuP 996. As for the experimental part: […] The mixture was centrifuged at 47,000×g for 20 minutes. The supernatant containing the solubilized protein was collected. The supernatant from centrifugation of brain membranes without detergent was used as the control.
Fifty μl aliquots of the solubilized membrane protein were incubated with 0.2 ml of 50 mM Tris-HCl, pH 7.4, with 0.1% bovine serum albumin, and 10 nM tritiated DuP 996 in a total volume of 0.325 ml. Nonspecific binding was determined in the presence of 10 μM DuP 996. After 1 hour of incubation at 25° C., 0.5 ml of ice-cold 0.1M sodium phosphate buffer, pH 7.4, with 0.1% bovine gamma globulin was added. The sample was put on ice and then 0.5 ml of 25% (w/v) polyethylene glycol 8000 was added and mixed. The sample was put on ice for 10 to 15 minutes and filtered through Whatman GF/B filters which had been presoaked in 0.2% polyethylenimine. The filtered sample was washed twice with 3 ml each of ice cold 8% polyethylene glycol 8000 in 100 mM Tris-HCl, pH 7.4. Bound radioactivity retained on the filters was counted in a liquid scintillation counter.

Assay [3] deals with DuP 996 binding protein. Nature of the assay: Phospholipase C pretreatment, binding of tritiated DuP 996. More on the design: species or system rat. The following applies: 5-50 μg/ml phospholipase C, 10 min, 37° C. As for the experimental part: One ml aliquots of brain membranes (1-2 mg of protein) in 50 mM Tris-HCl buffer, pH 7.4, were incubated with 5-50 μg/ml of phospholipase C for 10 min at 37° C. 10 nM of tritiated DuP 996 was added and incubated for 45 min at 25° C. Samples were filtered on Whatman GF/B filters which had been presoaked in 0.2% polyethylenimine under negative pressure and washed 3 times with ice-cold buffer. Nonspecific binding was determined in the presence of 10 μM DuP 996.

Assay [4] has as its system DuP 996 binding protein. Nature of the assay: Trypsin pretreatment, binding of tritiated DuP 996. More on the design: species or system rat. The following applies: 0.1-100 μg/ml trypsin, 25° C., 10 min. How it is done:
One ml aliquots of brain membranes (1-2 mg of protein) in 50 mM Tris-HCl buffer, pH 7.4, were incubated with 0.1-100 μg/ml of trypsin (17,000 BAEE units/mg protein) at 25° C. for 10 min. 10 nM of tritiated DuP 996 was added and incubated for 45 min at 25° C. […]. Samples were filtered on Whatman GF/B filters which had been presoaked in 0.2% polyethylenimine under negative pressure and washed 3 times with ice-cold buffer. Nonspecific binding was determined in the presence of 10 μM DuP 996.

For the molecule `O=C1c2c(Cl)cccc2C(Cc2ccncc2)(Cc2ccncc2)c2cccc(Cl)c21` [Compound 3, 10,10-Bis-(4-pyridinylmethyl)-1,8-dichloro-9(10H)-anthracenone], the “ACh Release EC100” value in the assay with ACh release was 170 nM. In addition, the IC50 at DuP 996 binding protein [1] came to 32 nM.
Regarding `O=C1N(c2ccccc2)c2ccccc2C1(Cc1cnn(Cc2ccccc2)c1)Cc1cnn(Cc2ccccc2)c1` [Compound 27, 3,3-Bis[1-(phenylmethyl)-1H-pyrazol-4-ylmethyl]-1,3 dihydro-1-phenyl-2H-indol-2-one], the “ACh Release EC100” value in the assay with ACh release was 1,300,000 nM. On DuP 996 binding protein [1], the IC50 was 990000 nM.
Turning to `CNC(=O)Oc1ccc2c(c1)[C@]1(C)CCN(C)[C@@H]1N2C` [physostigmine], the “cognitive measures in Alzheimer's patients” value in the assay on Alzheimer's patients is reported as “limited improvement in cognitive measures”.
Take `Nc1ccc2c(c1)C(Cc1ccncc1)(Cc1ccncc1)c1ccccc1-2` [Compound 2, 9,9-Bis-(4-pyridinylmethyl)-9H-fluorene-2-amine]: the “ACh Release EC100” value in the assay with ACh release stood at 140 nM. The same molecule yielded an IC50 on DuP 996 binding protein [1] of 30 nM.
For `O=C1N(c2ccccc2)c2ccccc2C1(Cc1ccncc1)Cc1ccncc1` [Compound 7, 3,3-Bis(4-pyridinylmethyl)-1-phenylindolin-2-one], the “SPECIFIC BINDING” value is on record as 868 dpm in assay [2] (CHAPS, 20 mM); 348 dpm in assay [2] (NP40); 511 dpm in assay [2] (Octyl glucoside, 0.4%); 0 dpm in assay [2] (Triton X-100, 1%); 134 dpm in assay [2] (Tween 80, 1%). For the same molecule, the “DuP 996 binding activity after preincubation with phospholipase C” value in the assay with DuP 996 binding protein [3] is recorded as “no effect on the DuP 996 binding activity”. The same molecule gave an IC50 on DuP 996 binding protein [1] of 56 nM. In the assay on DuP 996 binding protein [4], the “tritiated DuP 996 binding activity after trypsin preincubation” value is recorded as “loss of tritiated DuP 996 binding activity”.
In the case of `CC(=O)c1ccc2c(c1)C(Cc1ccncc1)(Cc1ccncc1)c1ccccc1-2` [Compound 1, 1-[9,9-Bis(4-pyridinylmethyl)-9H-fluoren-2-yl]-ethanone], the “ACh Release EC100” value in the assay with ACh release came out at 170 nM. The IC50 at DuP 996 binding protein [1] was found to be 20 nM.
In the case of `CN1C(=O)C(Cc2ccncc2)(Cc2ccncc2)c2ccccc21` [Compound 22, 1,3-Dihydro-1-methyl-3-3-bis(4-pyridinylmethyl)-2-H-indol-2-one], in the assay with ACh release, the “ACh Release EC100” value is recorded as 17,000 nM. On DuP 996 binding protein [1], this molecule gave an IC50 of 15900 nM.
Turning to `C=C1c2cccc3cccc(c23)C1(Cc1ccncc1)Cc1ccncc1` [Compound 11, 4-[1,2-Dihydro-2-methyl-ene-1-(4-pyridinylmethyl)-1-acenaphthylen-1-yl-methyl]-pyridine], in the assay with ACh release, the “ACh Release EC100” value was 3,300 nM. Moreover, on DuP 996 binding protein [1], the IC50 is 120 nM.
